Assay results from ChEMBL document CHEMBL1201862, “PubChem BioAssay data set” (2004).
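Step 1: Grow cells in 96-well plates. Step 2: Expose to compound for 48 hours at 5 concentrations. Step 3: Interpolate endpoints linearly; if unreached, use highest concentration. GI50 = concentration required for 50% inhibition of growth.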 Calls of active or inactive are those of the source. No stated cut-off is given here; in the data, active = GI50 up to about 1.1 µM and inactive = higher.

How the values were obtained:
Experiment in all cases: DTP human tumour cell line panel, 48 h
[1] = system: A549
[2] = system: CAKI-1
[3] = system: HL-60
[4] = system: HOP-62
[5] = system: HOP-92
[6] = system: IGROV-1
[7] = system: KM12
[8] = system: LOX IMVI
[9] = system: Malme-3M
[10] = system: NCI-H226
[11] = system: NCI-H460
[12] = system: NCI-H522
[13] = system: RPMI-8226
[14] = system: RXF 393
[15] = system: SK-OV-3
[16] = system: SNB-19
[17] = system: U-251
[18] = system: MCF7
[19] = system: T47D

Cc1nc(C(N)=S)sc1C(=O)/C=C/c1c(O)ccc2ccccc12
GI50 [1]: > 100 µM (inactive) | GI50 [2]: > 87.5 µM (inactive) | GI50 [3]: 22.1 µM (inactive) | GI50 [4]: > 100 µM (inactive) | GI50 [5]: > 74.1 µM (inactive) | GI50 [6]: > 100 µM (inactive) | GI50 [7]: 31.3 µM (inactive) | GI50 [8]: 26 µM (inactive) | GI50 [9]: > 90.2 µM (inactive) | GI50 [10]: > 100 µM (inactive) | GI50 [11]: > 100 µM (inactive) | GI50 [12]: 26.9 µM (inactive) | GI50 [13]: 29.4 µM (inactive) | GI50 [14]: 31.8 µM (inactive) | GI50 [15]: > 100 µM (inactive) | GI50 [16]: > 100 µM (inactive) | GI50 [17]: > 100 µM (inactive)

CC(=O)NNc1nc(C)c(C(=O)/C=C/c2ccc(N(C)C)cc2)s1
GI50 [1]: > 100 µM (inactive) | GI50 [2]: > 100 µM (inactive) | GI50 [3]: > 100 µM (inactive) | GI50 [4]: > 100 µM (inactive) | GI50 [5]: > 100 µM (inactive) | GI50 [6]: > 100 µM (inactive) | GI50 [7]: > 100 µM (inactive) | GI50 [8]: > 100 µM (inactive) | GI50 [9]: > 100 µM (inactive) | GI50 [10]: > 100 µM (inactive) | GI50 [11]: > 100 µM (inactive) | GI50 [12]: > 100 µM (inactive) | GI50 [13]: > 100 µM (inactive) | GI50 [14]: 88.9 µM (inactive) | GI50 [15]: > 100 µM (inactive) | GI50 [17]: > 100 µM (inactive)

C[C@]12CC[C@H]3[C@@H](CC=C4C[C@@H](N5CCCC5)CC[C@@]43C)[C@@H]1C/C(=C\c1ccc([N+](=O)[O-])cc1)[C@@H]2O
GI50 [1]: 17.1 µM (inactive) | GI50 [2]: 13.3 µM (inactive) | GI50 [4]: 17.9 µM (inactive) | GI50 [5]: 13 µM (inactive) | GI50 [6]: 14.8 µM (inactive) | GI50 [7]: 16.2 µM (inactive) | GI50 [8]: 16.4 µM (inactive) | GI50 [18]: 20.7 µM (inactive) | GI50 [9]: 16.5 µM (inactive) | GI50 [10]: 18.5 µM (inactive) | GI50 [11]: 28.1 µM (inactive) | GI50 [12]: 17.1 µM (inactive) | GI50 [13]: 16.1 µM (inactive) | GI50 [14]: 19.9 µM (inactive) | GI50 [15]: 15.9 µM (inactive) | GI50 [16]: 24.7 µM (inactive) | GI50 [19]: 20.7 µM (inactive) | GI50 [17]: 12.7 µM (inactive)

O=c1c2ccccc2[nH]c2ccc3c(Cl)n[nH]c3c12
GI50 [1]: 15.9 µM (inactive) | GI50 [2]: 23.7 µM (inactive) | GI50 [3]: 40.1 µM (inactive) | GI50 [4]: 29.1 µM (inactive) | GI50 [5]: 38.5 µM (inactive) | GI50 [6]: 35 µM (inactive) | GI50 [7]: 32.9 µM (inactive) | GI50 [8]: 20.8 µM (inactive) | GI50 [9]: 19.1 µM (inactive) | GI50 [10]: 0.54 µM (active) | GI50 [11]: 31.8 µM (inactive) | GI50 [12]: 35 µM (inactive) | GI50 [13]: 39.7 µM (inactive) | GI50 [14]: 42.2 µM (inactive) | GI50 [15]: > 100 µM (inactive) | GI50 [16]: 32.7 µM (inactive) | GI50 [17]: 53.6 µM (inactive)

C=C1C(=O)O[C@@H]2/C=C(/C)[C@@H](OC(C)=O)C/C=C(\C)C(O)[C@@H](OC(=O)/C(C)=C\C)C12 (some centres undefined)
GI50 [1]: 95.7 µM (inactive) | GI50 [2]: 24.2 µM (inactive) | GI50 [3]: 14.8 µM (inactive) | GI50 [4]: > 100 µM (inactive) | GI50 [5]: 22.1 µM (inactive) | GI50 [6]: 50.7 µM (inactive) | GI50 [7]: 68.7 µM (inactive) | GI50 [8]: 14.6 µM (inactive) | GI50 [18]: 27.6 µM (inactive) | GI50 [10]: > 100 µM (inactive) | GI50 [11]: 39 µM (inactive) | GI50 [12]: 13.4 µM (inactive) | GI50 [13]: 21.6 µM (inactive) | GI50 [14]: 26.8 µM (inactive) | GI50 [15]: > 100 µM (inactive) | GI50 [16]: > 100 µM (inactive) | GI50 [19]: 19.6 µM (inactive) | GI50 [17]: 41.1 µM (inactive)

CCOC(=O)c1ccc(/N=C\c2ccc(N(CCC#N)CCC#N)cc2)cc1
GI50 [1]: 70 µM (inactive) | GI50 [2]: > 100 µM (inactive) | GI50 [3]: 80.9 µM (inactive) | GI50 [4]: 40.5 µM (inactive) | GI50 [5]: > 100 µM (inactive) | GI50 [6]: 81.8 µM (inactive) | GI50 [8]: 44.2 µM (inactive) | GI50 [9]: > 100 µM (inactive) | GI50 [10]: > 100 µM (inactive) | GI50 [11]: > 100 µM (inactive) | GI50 [12]: 49.5 µM (inactive) | GI50 [13]: 65.6 µM (inactive) | GI50 [14]: > 100 µM (inactive) | GI50 [15]: > 100 µM (inactive) | GI50 [16]: > 100 µM (inactive)

COC(=O)/C=C1\C(=O)Nc2ccc(Br)cc21
GI50 [1]: 3.15 µM (inactive) | GI50 [2]: 1.04 µM (active) | GI50 [3]: 1.59 µM (inactive) | GI50 [4]: 2.06 µM (inactive) | GI50 [5]: 1.88 µM (inactive) | GI50 [6]: 1.75 µM (inactive) | GI50 [7]: 2.53 µM (inactive) | GI50 [8]: 0.804 µM (active) | GI50 [18]: 1.46 µM (inactive) | GI50 [9]: 2.33 µM (inactive) | GI50 [10]: 1.72 µM (inactive) | GI50 [11]: 2.25 µM (inactive) | GI50 [12]: 0.743 µM (active) | GI50 [13]: 1.41 µM (inactive) | GI50 [14]: 1.54 µM (inactive) | GI50 [15]: 3.53 µM (inactive) | GI50 [16]: 3.24 µM (inactive) | GI50 [19]: 2.16 µM (inactive) | GI50 [17]: 2.03 µM (inactive)

NS(=O)(=O)c1nn2c(Br)c(-c3ccccc3)nc2s1
GI50 [1]: 6.44 µM (inactive) | GI50 [2]: 3.03 µM (inactive) | GI50 [3]: 3.66 µM (inactive) | GI50 [4]: 14.9 µM (inactive) | GI50 [5]: 8.77 µM (inactive) | GI50 [6]: 10.4 µM (inactive) | GI50 [7]: 4.85 µM (inactive) | GI50 [8]: 1.95 µM (inactive) | GI50 [18]: 3.95 µM (inactive) | GI50 [9]: 3.96 µM (inactive) | GI50 [10]: 1.91 µM (inactive) | GI50 [11]: 5.98 µM (inactive) | GI50 [12]: 1.61 µM (inactive) | GI50 [13]: 2.39 µM (inactive) | GI50 [14]: 0.847 µM (active) | GI50 [15]: 14.7 µM (inactive) | GI50 [16]: 9.46 µM (inactive) | GI50 [19]: 3.66 µM (inactive) | GI50 [17]: 4.59 µM (inactive)
